In PMC5556071, “ATR inhibition facilitates targeting of leukemia dependence on convergent nucleotide biosynthetic pathways” (Nature Communications, 2017):
Several values for one entry are separate records, joined by “and”; a condition that tells them apart may be missing. Equal entries are not always repeated.

System: CEM cells
Experiment: Non-targeted LC-MS metabolite profiling: percent [13C6]glucose labeling and relative metabolite levels
Type: cell-based, human
Details: CEM cells, 12 h following release from G1 arrest, replicates #1-#6
From the text: To further investigate the functions of dCK and ATR at the G1/S transition in CEM cells, a non-targeted liquid chromatography mass spectrometry (LC-MS) assay was used to determine the utilization of labeled [^13C6]glucose and [^13C9,^15N3]deoxycytidine, the main substrates for de novo and salvage nucleotide biosynthesis, respectively. Of the 166 metabolites identified in CEM cells treated with VE-822 and/or dCKi, 105 metabolites found in all four treatment groups contained glucose-derived ^13C atoms. […] These metabolites included intermediates such as rUTP, rCTP and rCDP in the de novo dCTP biosynthesis (Fig. 1d). […] However, several deoxyribonucleotides, including dCTP, were below the limit of detection of the non-targeted LC-MS approach, raising the concern that the sensitivity of this assay is not sufficient to measure the contribution of the salvage pathway or the ratio of de novo and salvage biosynthesis to these pools. To address this problem, a newly developed targeted MS assay was developed (Fig. 1e and Supplementary Fig. 3). In this assay, samples containing either extracted dNTPs or hydrolyzed DNA from labeled cells are separated by LC for detection by a triple quadrupole mass spectrometer using multiple reaction monitoring (LC-MS/MS-MRM). The first (Q1) and third (Q3) quadrupoles function as mass filters, while the second (Q2) quadrupole serves as a collision chamber (Fig. 1e). For instance, to profile the biosynthetic composition of deoxycytidine (dC) derived from hydrolyzed DNA or dCTP, an intact, protonated dC ion is selected in Q1, followed by fragmentation of the glycosidic bond, which releases protonated cytosine in Q2, that is filtered in Q3 and detected to generate an ion chromatogram. The peak areas for the ion chromatograms of salvage [^13C9,^15N3]dC (red trace), de novo [^13C5]dC (black trace, from [^13C6]glucose) and unlabeled dC (gray trace) (Fig. 1e) are used to determine the relative contributions of the de novo and salvage routes both to dCTP pools and to DNA-incorporated dCTP.
Cells were transferred into RPMI-1640 without glucose and supplemented with 10% dialyzed FBS (Gibco) containing the following labeled substrates: precursors for de novo [U-^13C6]glucose (Sigma-Aldrich, 389374) at 11 mM; precursors for purine salvage [U-^13C10,^15N5]dA (Cambridge Isotopes, CIL 3896), [^15N5]dA (Cambridge Isotopes, NLM-3895) and [^15N5]dG (Cambridge Isotopes, NLM-3899) at 5 µM or as indicated; and precursors for pyrimidine salvage: [U-^13C9,^15N3]dC (Silantes, 124603602) and [U-^13C10,^15N2]dT (Cambridge Isotopes, CNLM-3902) at 5 µM and [^15N2]orotate (Cambridge Isotopes, NLM-1048) at indicated concentrations. The cells were incubated for 12 h or as indicated before sample collection and processing. […]
Non-targeted LC-MS metabolic assays. 1 x 10^6 cells were washed with ice-cold 150 mM ammonium acetate twice before adding 1 mL of ice-cold 80% methanol with 10 nM norvaline as an internal standard. After vigorous vortexing, samples were centrifuged at maximum speed, the aqueous layer was transferred to a glass vial and the metabolites were dried under vacuum. Metabolites were resuspended in 50 μL 70% acetonitrile (ACN) and 5 μL of this solution used for the mass spectrometer-based analysis. The analysis was performed on a Q Exactive (Thermo Scientific) in polarity-switching mode with positive voltage 4.0 kV and negative voltage 4.0 kV. The mass spectrometer was coupled to an UltiMate 3000RSLC (Thermo Scientific) UHPLC system. Mobile phase A was 5 mM ammonium acetate (NH4AcO), pH 9.9, B was acetonitrile and the separation achieved on a Luna […] NH2 100 A column (150 × 2.0 mm, Phenomenex). The flow was 200 μL/min, and the gradient ran from 15% A to 95% A in 18 min, followed by an isocratic step for 9 min and re-equilibration for 7 min. Metabolites were detected and quantified as area under the curve based on retention time and accurate mass (≤ 3 p.p.m.) using the TraceFinder 3.1 (Thermo Scientific). Relative amounts of […]

[1] = metabolite CDP (KEGG C00112), listed as D
[2] = metabolite CDP-EtA (KEGG C00570), listed as D
[3] = metabolite CMP (KEGG C00055), listed as D
[4] = metabolite CTP (KEGG C00063), listed as D
[5] = metabolite Choline (KEGG C00114), listed as D
[6] = metabolite Cinnamic acid (KEGG C00423), listed as D
[7] = metabolite Cit (KEGG C00158), listed as D
[8] = metabolite Creatine (KEGG C00300), listed as D
[9] = metabolite Creatinine (KEGG C00791), listed as D
[10] = metabolite Cytosine (KEGG C00380), listed as D
[11] = metabolite DMG (KEGG C01026), listed as D
[12] = metabolite Dihydroorotate (KEGG C00337), listed as D
[13] = metabolite F16BP (KEGG C00354), listed as D
[14] = metabolite Folate (KEGG C00504), listed as D
[15] = metabolite Fru (KEGG C00095), listed as D
[16] = metabolite Fum (KEGG C00122), listed as D
[17] = metabolite G (KEGG C00387), listed as D
[18] = metabolite dG (KEGG C00330), listed as D

SMILES: COc1ccc(-c2nc([C@@H](C)Sc3nc(N)cc(N)n3)c(C)s2)cc1OCCNS(C)(=O)=O [dCKi]
- Glucose labeling of CDP [1]: 77.96% and 72.97% and 80.28% and 0.44% and 79.17% and 76.50%
- Relative level of CDP [1]: 0.5 and 1.3 and 2.1 and 0.0678 and 0.334 and 0.7
- Glucose labeling of CDP-EtA [2]: 70.01% and 72.58% and 83.31% and 72.60% and 75.82% and 67.23%
- Relative level of CDP-EtA [2]: 0.9 (4×) and 1.4 and 1.0
- Glucose labeling of CMP [3]: 71.05% and 65.79% and 64.24% and 62.92% and 70.94% and 75.98%
- Relative level of CMP [3]: 1.0 and 0.663 and 1.8 and 0.2 and 0.366 and 0.8
- Glucose labeling of CTP [4]: 81.19% and 79.64% and 75.43% and 84.05% and 71.54% and 81.90%
- Relative level of CTP [4]: 0.345 and 0.9 and 1.2 and 0.0446 and 0.234 and 0.445
- Glucose labeling of Choline [5]: 0.00256% and 0.00252% and 0.00247% (2×) and 0.00241% and 0.00245%
- Relative level of Choline [5]: 1.1 and 1.3 (2×) and 0.842 and 0.8 (2×)
- Glucose labeling of Cinnamic acid [6]: 0.00% (5×) and 1.11e-14%
- Relative level of Cinnamic acid [6]: 1.2 and 1.3 and 1.6 and 0.8 (2×) and 0.7
- Glucose labeling of Cit [7]: 50.63% and 52.82% and 53.30% and 41.63% and 44.16% and 45.64%
- Relative level of Cit [7]: 0.8 and 1.3 and 1.4 and 0.367 and 0.6 and 0.7
- Glucose labeling of Citraconic acid (metabolite Citraconic acid (KEGG C02226)): 0.00%
- Relative level of Citraconic acid (metabolite Citraconic acid (KEGG C02226), listed as D): 1.1 and 1.0 (2×) and 1.3 and 0.645 and 0.9
- Glucose labeling of Citrulline (metabolite Citrulline (KEGG C00327)): 0.18%
- Relative level of Citrulline (metabolite Citrulline (KEGG C00327), listed as D): 2.2 and 0.259 and 0.529 and 0.8 and 0.4 and 0.527
- Glucose labeling of Creatine [8]: 0.000817% and 0.00101% and 2.36e-6% and 0.000311% and 0.000285% and 0.000183%
- Relative level of Creatine [8]: 1.0 (4×) and 1.1 (2×)
- Glucose labeling of Creatinine [9]: 0.000768% and 0.000756% and 0.000758% and 0.000811% and 0.00078% and 0.000884%
- Relative level of Creatinine [9]: 1.2 and 0.952 and 1.0 (2×) and 0.8 and 0.9
- Glucose labeling of Cystathionine (metabolite Cystathionine (KEGG C02291)): 0.26%
- Relative level of Cystathionine (metabolite Cystathionine (KEGG C02291), listed as D): 1.9 (2×) and 1.8 and 0.9 and 0.634 and 0.644
- Glucose labeling of Cytosine [10]: 0.000526% and 0.000773% and 0.000656% and 0.000291% and 0.000873% and 0.0323%
- Relative level of Cytosine [10]: 1.6 and 0.8 and 1.1 (2×) and 1.4 and 2.5
- Glucose labeling of DHAP (metabolite DHAP (KEGG C00111)): 100.00%
- Relative level of DHAP (metabolite DHAP (KEGG C00111)): 0.162
- Glucose labeling of DMG [11]: 0.05% and 0.06% and 0.000349% and 0.02% and 0.0219% and 0.03%
- Relative level of DMG [11]: 1.0 (2×) and 1.3 (2×) and 1.4 and 1.1
- Glucose labeling of Dihydroorotate [12]: 2.31% and 4.79% and 3.17% and 1.21% and 1.28% and 0.88%
- Relative level of Dihydroorotate [12]: 1.8 and 2.4 and 1.6 and 0.556 and 0.665 and 0.641
- Glucose labeling of F16BP [13]: 45.03% and 62.70% and 85.32% and 37.47% and 50.53% and 49.36%
- Relative level of F16BP [13]: 0.184 and 0.186 and 0.7 and 0.137 and 0.132 and 0.115
- Glucose labeling of Folate [14]: 100.00% and 0.00% (4×) and 1.11e-14%
- Relative level of Folate [14]: 1.8 and 6.1 and 0.8 and 0.376 and 0.9
- Glucose labeling of Fru [15]: 17.52% and 38.15% and 34.20% and 21.41% and 18.03% and 26.54%
- Relative level of Fru [15]: 1.5 and 0.6 and 0.8 and 1.0 and 1.4 and 0.9
- Glucose labeling of Fum [16]: 15.19% and 16.91% and 18.53% and 8.92% and 13.71% and 14.45%
- Relative level of Fum [16]: 0.9 and 1.0 and 1.4 and 0.443 and 0.654 and 0.7
- Glucose labeling of G [17]: 100.00% (3×) and 0.55% (3×)
- Relative level of G [17]: 1.4 and 0.8 and 0.9
- Glucose labeling of dATP (metabolite dATP (KEGG C00131)): 100.00%
- Relative level of dATP (metabolite dATP (KEGG C00131), listed as D): 0.743 and 1.0
- Glucose labeling of dCTP (metabolite dCTP (KEGG C00458)): 100.00%
- Relative level of dCTP (metabolite dCTP (KEGG C00458), listed as D): 1.0 and 0.8 and 1.2
- Glucose labeling of dG [18]: 0.40% and 0.52% and 0.55% and 0.48% and 0.47% and 0.42%
- Relative level of dG [18]: 1.5 and 0.9 (2×) and 1.1 and 0.8 (2×)
- Glucose labeling of dGDP (metabolite dGDP (KEGG C00361)): 100.00%
- Relative level of dGDP (metabolite dGDP (KEGG C00361)): 0.0
- Glucose labeling of dTMP (metabolite dTMP (KEGG C00364)): 100.00%
- Relative level of dTMP (metabolite dTMP (KEGG C00364), listed as D): 1.6 (2×) and 1.0 and 2.4
- Glucose labeling of dTTP (metabolite dTTP (KEGG C00459)): 100.00%
- Relative level of dTTP (metabolite dTTP (KEGG C00459), listed as D): 1.6 and 3.4 and 1.3
- Glucose labeling, Lys: 0.00%
- Glucose labeling, NAD+: 0.00%
- Glucose labeling, Nicotinamide: 0.00%
- Glucose labeling, P-Creatine: 0.0737%
- Glucose labeling, P-EtA: 0.0123%
- Glucose labeling, PEP: 100.00%
- Glucose labeling, Phe: 0.00%
- Glucose labeling, Pipecolate: 0.00%
- Glucose labeling, Pyr: 100.00%
- Glucose labeling, Thr (C00188): 0.00%
- Glucose labeling, Trigonelline (C01004): 0.00%
